According to US20200138824A1, “TREATMENT OF CANCER WITH A PI3K INHIBITOR IN A PATIENT PRESELECTED FOR HAVING A PIK3CA MUTATION IN THE CTDNA” (Novartis AG, priority 2015, published 2020):

System: HR+, HER2-negative locally advanced or metastatic breast cancer
Experiment: Study CBKM120F2302, randomized double-blind placebo-controlled Phase-III trial: buparlisib plus fulvestrant vs. placebo plus fulvestrant
Type: in vivo, human
Conditions: Full population
Text: For the Study, patients were selected according to the following inclusions and exclusion criteria:
Inclusion Criteria: • Locally advanced or metastatic breast cancer • HER2-negative and hormone receptor-positive status (common breast cancer classification tests) • Postmenopausal woman • A tumor sample must be shipped to a Novartis designated laboratory for identification of biomarkers (PI3K activation status) • Progression or recurrence of breast cancer while on or after aromatase inhibitor treatment • Measurable disease or non measurable disease bone lesions in the absence of measurable disease as per Response Evaluation Criteria in Solid Tumors 1.1 • Adequate bone marrow and organ function defined by laboratory values
Approximately 1200 patients were to be randomized in a 1:1 ratio. Enrollment was to continue until a minimum of 842 patients were randomized in the main cohort, including ≥334 patients with activated PI3K pathway status. […]
The PI3K pathway activation status was defined based on analysis of archival tumor samples as: • A mutation in the PIK3CA gene in one or more of exons 1, 7, 9, or 20 as assessed by Sanger sequencing, and/or • Loss of phosphotensin homolog (PTEN) expression (<10% of tumor cells expressing PTEN at 1+ level by immunohistochemistry [IHC] and no tumor cells staining with an intensity >1+) […]

Nc1cc(C(F)(F)F)c(-c2cc(N3CCOCC3)nc(N3CCOCC3)n2)cn1 [buparlisib, 5-(2,6-di-morpholin-4-yl-pyrimidin-4-yl)-4-trifluoromethyl-pyridin-2-ylamine]
Overall safety and tolerability profile: consistent with prior experience in single-arm and combination studies and with the class effects of PI3K inhibitors
